Literature values in article PMC11457607 (Oncoimmunology, 2024).

How the values were obtained:
NETs = conditions: local irradiation, clinical trials
SSTR5 = conditions: cyclic peptide agonist; in words
SSTR2 = conditions: cyclic peptide agonist; in words
[1] = clinical diagnostic dye, i.v.

Molecule: [^177Lu]Lu-DOTA-TATE
- slowing progression of NETs (NETs): high specificity and efficacy in slowing the progression of NETs

Molecule: DOTA-Tyr[3]-octreotate [DOTA-TATE]
- affinity to SSTR5 (SSTR5): binds with a high affinity to SSTR2 and SSTR5
- affinity to SSTR2 (SSTR2): high affinity to SSTR2

Molecule: O=C1OC2(c3ccc(O)cc3Oc3cc(O)ccc32)c2ccccc21 [fluorescein]
- safety of intravenous injection [1]: without reported overt safety concerns
